pIC50: −log10 of the molar value.
What was measured:
MDA-MB-231 = assay: cells; conditions: Homo sapiens, MDA-MB-231, 72 h
Description: Cytotoxicity against human MDA-MB-231 cells after 72 hrs by MTT assay

[1] = Cytotoxicity against human MKN45 cells after 72 hrs by MTT assay; conditions: MKN-45, 72 h
[2] = Cytotoxicity against human H460 cells after 72 hrs by MTT assay; conditions: NCI-H460, 72 h
HT-29 = assay: Cytotoxicity against human HT-29 cells after 72 hrs by MTT assay; conditions: HT-29, 72 h
[3] = biological target: Epidermal growth factor receptor (Homo sapiens, UniProt P00533); assay: Inhibition of EGFR (unknown origin) after 30 mins using poly (Glu,Tyr)4:1 substrate
[4] = biological target: Vascular endothelial growth factor receptor 2 (Homo sapiens, UniProt P35968); assay: Inhibition of VEGFR2 (unknown origin) after 30 mins using poly (Glu,Tyr)4:1 substrate
[5] = biological target: Mast/stem cell growth factor receptor Kit (Homo sapiens, UniProt P10721); assay: Inhibition of c-KIT (unknown origin) after 30 mins using poly (Glu,Tyr)4:1 substrate
[6] = biological target: T1, Receptor-type tyrosine-protein kinase FLT3 (Homo sapiens, UniProt P36888); assay: Inhibition of FLT3 (unknown origin) after 30 mins using poly (Glu,Tyr)4:1 substrate
T1 sequence (P36888 whole entry): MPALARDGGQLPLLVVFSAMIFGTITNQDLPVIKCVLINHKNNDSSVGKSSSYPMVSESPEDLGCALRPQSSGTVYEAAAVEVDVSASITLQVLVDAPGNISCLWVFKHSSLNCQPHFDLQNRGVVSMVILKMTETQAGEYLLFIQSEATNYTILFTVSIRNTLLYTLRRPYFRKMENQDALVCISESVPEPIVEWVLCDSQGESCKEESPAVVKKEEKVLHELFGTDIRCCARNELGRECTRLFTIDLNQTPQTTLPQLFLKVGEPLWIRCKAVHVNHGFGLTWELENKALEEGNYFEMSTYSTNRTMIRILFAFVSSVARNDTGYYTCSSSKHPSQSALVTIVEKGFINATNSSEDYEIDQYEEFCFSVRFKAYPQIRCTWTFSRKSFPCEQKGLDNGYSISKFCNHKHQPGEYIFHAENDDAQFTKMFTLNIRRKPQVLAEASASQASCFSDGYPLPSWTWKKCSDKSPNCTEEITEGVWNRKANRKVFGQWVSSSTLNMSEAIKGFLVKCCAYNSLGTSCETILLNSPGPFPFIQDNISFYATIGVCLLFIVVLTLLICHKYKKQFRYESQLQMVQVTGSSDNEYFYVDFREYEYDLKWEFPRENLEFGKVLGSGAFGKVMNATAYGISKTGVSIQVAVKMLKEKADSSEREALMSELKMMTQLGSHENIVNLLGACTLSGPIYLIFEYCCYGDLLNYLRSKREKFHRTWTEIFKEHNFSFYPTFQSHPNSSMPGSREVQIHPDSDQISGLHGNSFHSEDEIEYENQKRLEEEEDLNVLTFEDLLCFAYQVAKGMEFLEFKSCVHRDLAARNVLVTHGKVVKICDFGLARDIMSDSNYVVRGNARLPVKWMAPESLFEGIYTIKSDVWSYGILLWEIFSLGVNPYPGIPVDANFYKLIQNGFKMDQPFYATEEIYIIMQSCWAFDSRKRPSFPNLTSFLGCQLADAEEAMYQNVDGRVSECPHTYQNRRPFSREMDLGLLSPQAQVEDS

[7] = biological target: Hepatocyte growth factor receptor (Homo sapiens, UniProt P08581); assay: Inhibition of c-Met (unknown origin) after 30 mins using poly (Glu,Tyr)4:1 substrate
[8] = biological target: Platelet-derived growth factor receptor alpha (Homo sapiens, UniProt P16234); assay: Inhibition of PDGFRalpha (unknown origin) after 30 mins using poly (Glu,Tyr)4:1 substrate
Platelet-derived growth factor receptor alpha, sequence (P16234 whole entry): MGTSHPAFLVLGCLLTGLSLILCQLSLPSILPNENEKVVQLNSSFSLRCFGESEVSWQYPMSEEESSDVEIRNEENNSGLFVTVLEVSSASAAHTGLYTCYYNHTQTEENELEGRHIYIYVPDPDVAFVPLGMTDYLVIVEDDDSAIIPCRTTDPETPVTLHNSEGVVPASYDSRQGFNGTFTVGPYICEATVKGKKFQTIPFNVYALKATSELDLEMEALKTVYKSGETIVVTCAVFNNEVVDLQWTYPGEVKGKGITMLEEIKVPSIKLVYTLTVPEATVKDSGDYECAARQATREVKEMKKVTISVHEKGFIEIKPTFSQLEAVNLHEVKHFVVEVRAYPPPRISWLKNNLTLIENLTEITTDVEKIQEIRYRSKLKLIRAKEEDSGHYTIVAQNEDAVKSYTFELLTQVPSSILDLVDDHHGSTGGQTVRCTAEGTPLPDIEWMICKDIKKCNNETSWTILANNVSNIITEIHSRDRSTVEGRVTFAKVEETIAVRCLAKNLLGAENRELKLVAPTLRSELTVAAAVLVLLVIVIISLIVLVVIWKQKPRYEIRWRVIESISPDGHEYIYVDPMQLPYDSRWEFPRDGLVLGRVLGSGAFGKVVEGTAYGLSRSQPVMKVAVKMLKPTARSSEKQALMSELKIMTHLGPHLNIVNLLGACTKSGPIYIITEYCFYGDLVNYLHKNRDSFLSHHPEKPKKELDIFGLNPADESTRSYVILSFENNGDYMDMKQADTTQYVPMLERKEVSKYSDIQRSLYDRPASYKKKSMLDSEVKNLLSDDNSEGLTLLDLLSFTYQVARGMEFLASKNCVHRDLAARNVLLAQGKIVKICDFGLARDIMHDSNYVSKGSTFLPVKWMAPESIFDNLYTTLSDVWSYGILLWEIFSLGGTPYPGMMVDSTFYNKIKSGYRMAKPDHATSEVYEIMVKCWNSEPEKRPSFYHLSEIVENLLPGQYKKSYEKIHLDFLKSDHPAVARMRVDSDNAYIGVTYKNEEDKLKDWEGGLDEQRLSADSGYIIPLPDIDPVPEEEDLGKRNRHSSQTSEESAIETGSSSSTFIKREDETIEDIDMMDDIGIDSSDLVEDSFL

Vascular endothelial growth factor receptor 2, sequence (P35968 whole entry): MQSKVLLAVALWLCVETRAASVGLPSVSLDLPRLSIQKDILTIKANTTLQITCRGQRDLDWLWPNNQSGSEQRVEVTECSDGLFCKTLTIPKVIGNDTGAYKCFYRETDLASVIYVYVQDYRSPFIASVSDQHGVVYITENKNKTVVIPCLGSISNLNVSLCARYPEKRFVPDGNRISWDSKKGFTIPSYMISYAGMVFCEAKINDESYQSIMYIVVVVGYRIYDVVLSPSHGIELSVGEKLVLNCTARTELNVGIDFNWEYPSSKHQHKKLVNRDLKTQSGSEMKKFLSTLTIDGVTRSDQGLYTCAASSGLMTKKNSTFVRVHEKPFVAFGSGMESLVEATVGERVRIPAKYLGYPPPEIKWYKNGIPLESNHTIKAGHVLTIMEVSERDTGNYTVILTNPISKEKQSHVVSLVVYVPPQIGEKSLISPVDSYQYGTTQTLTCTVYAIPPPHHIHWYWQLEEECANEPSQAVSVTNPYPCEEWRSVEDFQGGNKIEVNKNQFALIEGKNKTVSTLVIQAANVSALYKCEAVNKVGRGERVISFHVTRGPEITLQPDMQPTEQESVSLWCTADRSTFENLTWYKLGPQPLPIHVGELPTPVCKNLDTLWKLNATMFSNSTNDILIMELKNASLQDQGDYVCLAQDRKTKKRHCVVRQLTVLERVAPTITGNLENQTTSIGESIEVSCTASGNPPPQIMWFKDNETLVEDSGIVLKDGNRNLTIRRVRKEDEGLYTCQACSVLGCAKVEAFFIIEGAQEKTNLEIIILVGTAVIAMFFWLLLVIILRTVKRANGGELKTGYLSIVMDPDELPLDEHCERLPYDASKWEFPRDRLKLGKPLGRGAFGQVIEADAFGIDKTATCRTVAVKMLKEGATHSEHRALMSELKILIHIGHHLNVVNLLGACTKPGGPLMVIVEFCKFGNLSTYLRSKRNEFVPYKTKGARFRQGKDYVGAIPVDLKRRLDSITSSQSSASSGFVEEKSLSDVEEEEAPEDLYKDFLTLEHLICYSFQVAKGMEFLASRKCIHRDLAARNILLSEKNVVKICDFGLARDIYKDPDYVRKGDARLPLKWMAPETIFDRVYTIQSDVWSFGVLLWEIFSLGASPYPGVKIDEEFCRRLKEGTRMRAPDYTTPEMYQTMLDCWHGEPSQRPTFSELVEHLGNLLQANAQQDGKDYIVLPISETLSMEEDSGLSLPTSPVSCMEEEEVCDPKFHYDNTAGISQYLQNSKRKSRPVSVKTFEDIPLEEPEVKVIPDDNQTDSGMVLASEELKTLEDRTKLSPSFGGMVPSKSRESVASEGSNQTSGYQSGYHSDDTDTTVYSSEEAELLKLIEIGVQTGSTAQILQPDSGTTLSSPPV
Mast/stem cell growth factor receptor Kit, sequence (P10721 whole entry): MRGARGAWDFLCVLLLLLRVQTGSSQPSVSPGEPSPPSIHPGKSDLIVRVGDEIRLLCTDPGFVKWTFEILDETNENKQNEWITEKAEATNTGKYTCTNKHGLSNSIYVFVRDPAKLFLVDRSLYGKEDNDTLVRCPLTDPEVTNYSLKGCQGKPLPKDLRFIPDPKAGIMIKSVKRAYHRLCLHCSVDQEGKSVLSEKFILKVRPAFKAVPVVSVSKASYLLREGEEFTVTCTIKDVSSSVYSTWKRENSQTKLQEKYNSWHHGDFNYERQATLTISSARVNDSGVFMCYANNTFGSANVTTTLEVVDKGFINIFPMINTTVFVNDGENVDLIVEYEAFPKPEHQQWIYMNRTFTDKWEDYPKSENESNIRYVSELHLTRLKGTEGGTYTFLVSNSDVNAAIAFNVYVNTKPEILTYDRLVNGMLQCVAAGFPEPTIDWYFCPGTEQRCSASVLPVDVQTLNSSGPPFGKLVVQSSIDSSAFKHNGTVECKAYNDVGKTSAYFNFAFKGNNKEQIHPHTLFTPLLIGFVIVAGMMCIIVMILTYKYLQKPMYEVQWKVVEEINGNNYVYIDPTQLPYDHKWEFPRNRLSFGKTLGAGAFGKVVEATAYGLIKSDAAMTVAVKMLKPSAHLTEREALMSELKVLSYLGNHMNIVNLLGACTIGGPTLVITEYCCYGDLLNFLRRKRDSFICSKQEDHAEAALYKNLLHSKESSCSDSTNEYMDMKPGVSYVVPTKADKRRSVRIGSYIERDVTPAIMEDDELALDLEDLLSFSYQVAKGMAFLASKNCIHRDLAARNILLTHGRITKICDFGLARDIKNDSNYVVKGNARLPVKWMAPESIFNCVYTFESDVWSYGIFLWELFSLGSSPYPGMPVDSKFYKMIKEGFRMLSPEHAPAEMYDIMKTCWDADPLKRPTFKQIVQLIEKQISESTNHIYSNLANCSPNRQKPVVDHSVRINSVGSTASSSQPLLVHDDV
Epidermal growth factor receptor, sequence (P00533 whole entry): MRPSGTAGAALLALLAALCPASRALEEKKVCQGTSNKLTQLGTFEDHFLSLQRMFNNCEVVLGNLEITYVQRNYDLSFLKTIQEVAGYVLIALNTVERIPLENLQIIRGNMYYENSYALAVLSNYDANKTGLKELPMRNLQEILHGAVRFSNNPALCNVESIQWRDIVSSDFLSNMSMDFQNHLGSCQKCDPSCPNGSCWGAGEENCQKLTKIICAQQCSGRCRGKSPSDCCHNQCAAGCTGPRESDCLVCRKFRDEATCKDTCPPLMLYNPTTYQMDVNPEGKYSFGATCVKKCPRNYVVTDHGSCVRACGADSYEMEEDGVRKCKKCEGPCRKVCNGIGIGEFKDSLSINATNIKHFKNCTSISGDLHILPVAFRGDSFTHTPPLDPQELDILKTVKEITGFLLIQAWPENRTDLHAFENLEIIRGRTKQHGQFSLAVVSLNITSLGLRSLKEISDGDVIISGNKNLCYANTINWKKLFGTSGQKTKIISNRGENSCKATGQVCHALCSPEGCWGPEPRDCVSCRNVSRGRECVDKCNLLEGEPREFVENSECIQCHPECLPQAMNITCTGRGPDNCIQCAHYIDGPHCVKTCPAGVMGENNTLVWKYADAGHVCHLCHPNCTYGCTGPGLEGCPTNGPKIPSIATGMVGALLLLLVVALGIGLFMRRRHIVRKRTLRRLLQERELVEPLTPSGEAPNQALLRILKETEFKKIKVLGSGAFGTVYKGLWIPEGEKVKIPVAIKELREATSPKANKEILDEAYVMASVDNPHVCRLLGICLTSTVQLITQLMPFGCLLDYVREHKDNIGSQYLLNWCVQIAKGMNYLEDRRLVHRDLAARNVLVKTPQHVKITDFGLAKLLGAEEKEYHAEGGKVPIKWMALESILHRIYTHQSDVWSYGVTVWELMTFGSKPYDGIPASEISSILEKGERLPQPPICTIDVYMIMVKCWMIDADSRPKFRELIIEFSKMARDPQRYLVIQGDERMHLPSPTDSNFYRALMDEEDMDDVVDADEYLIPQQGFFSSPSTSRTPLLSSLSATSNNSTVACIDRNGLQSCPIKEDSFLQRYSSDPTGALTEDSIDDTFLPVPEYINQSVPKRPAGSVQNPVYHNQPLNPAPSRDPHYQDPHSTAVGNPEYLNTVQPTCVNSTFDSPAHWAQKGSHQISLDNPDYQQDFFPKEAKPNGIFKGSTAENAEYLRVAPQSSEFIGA

Structure (SMILES) | pIC50 (MDA-MB-231) | pIC50 [3] | pIC50 [4] | pIC50 [5] | pIC50 [6] | pIC50 [7] | pIC50 [8] | pIC50 [1] | pIC50 [2] | pIC50 (HT-29)
COc1ccc(-n2nc(C(=O)Nc3ccc(Oc4ccnc5cc(OCCCN6CCCC6)c(OC)cc45)c(F)c3)c3ccccc3c2=O)cc1 | 5.46 |  |  |  |  |  |  | 5.88 | 5.78 | 5.63
COc1cc2c(Oc3ccc(NC(=O)c4nn(-c5ccc([N+](=O)[O-])cc5)c(=O)c5ccccc45)cc3F)ccnc2cc1OCCCN1CCCC1 | 5.53 |  |  |  |  |  |  | 5.79 | 5.91 | 5.75
COc1cc2c(Oc3ccc(NC(=O)c4nn(-c5ccc([N+](=O)[O-])cc5)c(=O)c5ccccc45)cc3F)ccnc2cc1OCCCN1CCN(C)CC1 | 5.46 |  |  |  |  |  |  | 5.88 | 6.01 | 5.59
COc1cc2c(Oc3ccc(NC(=O)c4nn(-c5ccc([N+](=O)[O-])cc5)c(=O)c5ccccc45)cc3F)ccnc2cc1OCCCN1CCC(C)CC1 | 5.40 |  |  |  |  |  |  | 5.94 | 5.87 | 5.61
COc1ccc(-n2nc(C(=O)Nc3ccc(Oc4ccnc5cc(OCCCN6CCOCC6)c(OC)cc45)c(F)c3)c3ccccc3c2=O)cc1 | 5.40 |  |  |  |  |  |  | 5.79 | 5.91 | 5.47
COc1cc2c(Oc3ccc(NC(=O)c4nn(-c5ccc(F)cc5)c(=O)c5ccccc45)cc3F)ccnc2cc1OCCCN1CCN(C)CC1 |  |  |  |  |  |  |  | 6.82 |  | 6.49
COc1cc2c(Oc3ccc(NC(=O)c4nn(-c5ccccc5F)c(=O)c5ccccc45)cc3F)ccnc2cc1OCCCN1CCCC1 |  |  |  |  |  |  |  | 6.85 |  | 6.40
COc1cc2c(Oc3ccc(NC(=O)c4nn(-c5ccccc5)c(=O)c5ccccc45)cc3F)ccnc2cc1OCCCN1CCCC1 |  |  |  |  |  |  |  | 6.28 |  | 6.01
COc1cc2c(Oc3ccc(NC(=O)c4nn(-c5ccccc5)c(=O)c5ccccc45)cc3F)ccnc2cc1OCCCN1CCN(C)CC1 | 5.80 |  |  |  |  |  |  | 6.21 | 6.35 | 5.94
COc1cc2c(Oc3ccc(NC(=O)c4nn(-c5cccc(F)c5)c(=O)c5ccccc45)cc3F)ccnc2cc1OCCCN1CCCC1 |  |  |  |  |  |  |  | 6.80 |  | 6.34
COc1cc2c(Oc3ccc(NC(=O)c4nn(-c5ccccc5Br)c(=O)c5ccccc45)cc3F)ccnc2cc1OCCCN1CCOCC1 | 5.81 |  |  |  |  |  |  | 6.35 | 6.43 | 6.17
COc1cc2c(Oc3ccc(NC(=O)c4nn(-c5ccccc5Br)c(=O)c5ccccc45)cc3F)ccnc2cc1OCCCN1CCN(C)CC1 | 5.77 |  |  |  |  |  |  | 6.40 | 6.54 | 5.92
COc1cc2c(Oc3ccc(NC(=O)c4nn(-c5ccc([N+](=O)[O-])cc5)c(=O)c5ccccc45)cc3F)ccnc2cc1OCCCN1CCCCC1 | 5.58 |  |  |  |  |  |  | 5.94 | 5.89 | 5.66
COc1cc2c(Oc3ccc(NC(=O)c4nn(-c5ccccc5)c(=O)c5ccccc45)cc3F)ccnc2cc1OCCCN1CCCCC1 | 5.73 |  |  |  |  |  |  | 6.23 | 6.19 | 5.88
COc1cc2c(Oc3ccc(NC(=O)c4nn(-c5ccc([N+](=O)[O-])cc5)c(=O)c5ccccc45)cc3F)ccnc2cc1OCCCN1CCOCC1 | 5.46 |  |  |  |  |  |  | 5.71 | 5.72 | 5.60
COc1ccc(-n2nc(C(=O)Nc3ccc(Oc4ccnc5cc(OCCCN6CCCCC6)c(OC)cc45)c(F)c3)c3ccccc3c2=O)cc1 | 5.70 |  |  |  |  |  |  | 6.02 | 6.08 | 5.84
COc1cc2c(Oc3ccc(NC(=O)c4nn(-c5ccc(F)cc5)c(=O)c5ccccc45)cc3F)ccnc2cc1OCCCN1CCCCC1 |  |  |  |  |  |  |  | 6.74 |  | 6.54
COc1ccc(-n2nc(C(=O)Nc3ccc(Oc4ccnc5cc(OCCCN6CCN(C)CC6)c(OC)cc45)c(F)c3)c3ccccc3c2=O)cc1 | 5.40 |  |  |  |  |  |  | 5.88 | 5.95 | 5.43

Further lines, with some results ahead:

pIC50 (MDA-MB-231) | pIC50 [3] | pIC50 [4] | pIC50 [5] | pIC50 [6] | pIC50 [7] | pIC50 [8] | Structure (SMILES) | pIC50 [1] | pIC50 [2] | pIC50 (HT-29)
6.18 |  |  |  |  |  |  | COc1cc2c(Oc3ccc(NC(=O)c4nn(-c5ccc(F)cc5)c(=O)c5ccccc45)cc3F)ccnc2cc1OCCCN1CCC(C)CC1 | 6.89 | 6.96 | 6.48
6.02 |  |  |  |  |  |  | COc1cc2c(Oc3ccc(NC(=O)c4nn(-c5ccc(Br)cc5)c(=O)c5ccccc45)cc3F)ccnc2cc1OCCCN1CCOCC1 | 6.47 | 6.54 | 6.15
6.17 |  |  |  |  |  |  | COc1cc2c(Oc3ccc(NC(=O)c4nn(-c5ccccc5F)c(=O)c5ccccc45)cc3F)ccnc2cc1OCCCN1CCC(C)CC1 | 6.59 | 6.70 | 6.29
5.91 |  |  |  |  |  |  | COc1cc2c(Oc3ccc(NC(=O)c4nn(-c5ccccc5Br)c(=O)c5ccccc45)cc3F)ccnc2cc1OCCCN1CCC(C)CC1 | 6.29 | 6.41 | 6.02
6.07 |  |  |  |  |  |  | COc1cc2c(Oc3ccc(NC(=O)c4nn(-c5cccc(F)c5)c(=O)c5ccccc45)cc3F)ccnc2cc1OCCCN1CCC(C)CC1 | 6.66 | 6.72 | 6.30
6.17 |  |  |  |  |  |  | COc1cc2c(Oc3ccc(NC(=O)c4nn(-c5ccc(F)cc5)c(=O)c5ccccc45)cc3F)ccnc2cc1OCCCN1CCOCC1 | 7.05 | 7.00 | 6.59
5.95 |  |  |  |  |  |  | COc1cc2c(Oc3ccc(NC(=O)c4nn(-c5ccc(Br)cc5)c(=O)c5ccccc45)cc3F)ccnc2cc1OCCCN1CCCCC1 | 6.30 | 6.39 | 6.11
5.98 |  |  |  |  |  |  | COc1cc2c(Oc3ccc(NC(=O)c4nn(-c5ccccc5F)c(=O)c5ccccc45)cc3F)ccnc2cc1OCCCN1CCN(C)CC1 | 6.68 | 6.64 | 6.32
6.15 |  |  |  |  |  |  | COc1cc2c(Oc3ccc(NC(=O)c4nn(-c5ccccc5F)c(=O)c5ccccc45)cc3F)ccnc2cc1OCCCN1CCOCC1 | 6.82 | 6.72 | 6.33
5.94 |  |  |  |  |  |  | COc1cc2c(Oc3ccc(NC(=O)c4nn(-c5ccc(Br)cc5)c(=O)c5ccccc45)cc3F)ccnc2cc1OCCCN1CCC(C)CC1 | 6.48 | 6.46 | 6.04
5.86 |  |  |  |  |  |  | COc1cc2c(Oc3ccc(NC(=O)c4nn(-c5ccc(Br)cc5)c(=O)c5ccccc45)cc3F)ccnc2cc1OCCCN1CCN(C)CC1 | 6.46 | 6.60 | 6.07
5.91 |  |  |  |  |  |  | COc1cc2c(Oc3ccc(NC(=O)c4nn(-c5ccccc5)c(=O)c5ccccc45)cc3F)ccnc2cc1OCCCN1CCOCC1 | 6.37 | 6.24 | 5.86
6.37 | < 5.00 | 7.15 | 8.66 | 8.46 | 8.79 | 7.80 | COc1cc2c(Oc3ccc(NC(=O)c4nn(-c5ccc(F)cc5)c(=O)c5ccccc45)cc3F)ccnc2cc1OCCCN1CCCC1 | 7.15 | 7.26 | 6.89
5.83 |  |  |  |  |  |  | COc1cc2c(Oc3ccc(NC(=O)c4nn(-c5ccccc5)c(=O)c5ccccc45)cc3F)ccnc2cc1OCCCN1CCC(C)CC1 | 6.24 | 6.26 | 5.98
5.94 |  |  |  |  |  |  | COc1cc2c(Oc3ccc(NC(=O)c4nn(-c5ccc(Br)cc5)c(=O)c5ccccc45)cc3F)ccnc2cc1OCCCN1CCCC1 | 6.64 | 6.74 | 6.17
6.04 |  |  |  |  |  |  | COc1cc2c(Oc3ccc(NC(=O)c4nn(-c5ccccc5F)c(=O)c5ccccc45)cc3F)ccnc2cc1OCCCN1CCCCC1 | 6.46 | 6.80 | 6.20
5.99 |  |  |  |  |  |  | COc1cc2c(Oc3ccc(NC(=O)c4nn(-c5ccccc5Br)c(=O)c5ccccc45)cc3F)ccnc2cc1OCCCN1CCCC1 | 6.39 | 6.49 | 6.07

— ChEMBL document CHEMBL3352619, “Design, synthesis and biological evaluation of novel 6,7-disubstituted-4-phenoxyquinoline derivatives bearing 4-oxo-3,4-dihydrophthalazine-1-carboxamide moieties as c-Met kinase inhibitors” (Bioorg Med Chem, 2014)
